Where two headings read alike, the source gives them in different places.
Experiments:
Type in all cases: biochemical
Settings in all cases: replicate number in parentheses
[1] = target: KAT7+BRPF2+EAF6+ING5 4 protein complex (Homo sapiens (Human), UniProt O95251); experiment: KAT7 BRPF2 assay (SAMDI-MS acetylation of H3 1-21 peptide)
[2] = target: KAT7+JADE1+EAF6+ING5 4 protein complex (Homo sapiens (Human), UniProt O95251); experiment: KAT7 JADE1 assay (SAMDI-MS acetylation of H3 1-21 peptide)
KAT6A Full length enzyme = KAT6A Full length enzyme (Homo sapiens (Human), UniProt Q92794); experiment: KAT6A assay (SAMDI-MS acetylation of H3 1-21 peptide)
KAT5 Full length enzyme = KAT5 Full length enzyme (Homo sapiens (Human), UniProt Q92993); experiment: KAT5 assay (SAMDI-MS acetylation of H4 1-21 peptide)
KAT8 Full length enzyme = KAT8 Full length enzyme (Homo sapiens (Human), UniProt Q9H7Z6); experiment: KAT8 assay (SAMDI-MS acetylation of H3 1-21 peptide)
[3] = Morrison equation fit, read-out: KAT7 BRPF2 Ki (nM) (replicate number)
[4] = Morrison equation fit, read-out: KAT7 JADE1 Ki (nM) (replicate number)
[5] = Morrison equation fit, read-out: KAT6A Ki (nM) (replicate number)
[6] = Morrison equation fit, read-out: KAT5 Ki (nM) (replicate number)
[7] = Morrison equation fit, read-out: KAT8 Ki (nM) (replicate number)
[8] = read-out: KAT7 BRPF2 Ki (nM) (replicate)
[9] = read-out: KAT7 JADE1 Ki (nM) (replicate)
[10] = read-out: KAT6A Ki (nM) (replicate)

KAT8 Full length enzyme, sequence (Q9H7Z6 whole entry): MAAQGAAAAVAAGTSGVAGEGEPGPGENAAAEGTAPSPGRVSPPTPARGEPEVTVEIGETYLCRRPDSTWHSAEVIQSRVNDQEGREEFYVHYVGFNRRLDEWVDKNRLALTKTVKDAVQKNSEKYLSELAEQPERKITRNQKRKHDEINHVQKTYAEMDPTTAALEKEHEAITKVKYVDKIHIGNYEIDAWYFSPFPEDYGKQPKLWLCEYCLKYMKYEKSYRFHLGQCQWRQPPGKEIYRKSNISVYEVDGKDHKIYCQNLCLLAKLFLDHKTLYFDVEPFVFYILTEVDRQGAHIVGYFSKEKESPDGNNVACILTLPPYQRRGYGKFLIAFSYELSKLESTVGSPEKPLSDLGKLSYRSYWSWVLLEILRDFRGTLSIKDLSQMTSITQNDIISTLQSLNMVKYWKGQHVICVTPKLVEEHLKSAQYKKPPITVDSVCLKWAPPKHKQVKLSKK
KAT5 Full length enzyme, sequence (Q92993 whole entry): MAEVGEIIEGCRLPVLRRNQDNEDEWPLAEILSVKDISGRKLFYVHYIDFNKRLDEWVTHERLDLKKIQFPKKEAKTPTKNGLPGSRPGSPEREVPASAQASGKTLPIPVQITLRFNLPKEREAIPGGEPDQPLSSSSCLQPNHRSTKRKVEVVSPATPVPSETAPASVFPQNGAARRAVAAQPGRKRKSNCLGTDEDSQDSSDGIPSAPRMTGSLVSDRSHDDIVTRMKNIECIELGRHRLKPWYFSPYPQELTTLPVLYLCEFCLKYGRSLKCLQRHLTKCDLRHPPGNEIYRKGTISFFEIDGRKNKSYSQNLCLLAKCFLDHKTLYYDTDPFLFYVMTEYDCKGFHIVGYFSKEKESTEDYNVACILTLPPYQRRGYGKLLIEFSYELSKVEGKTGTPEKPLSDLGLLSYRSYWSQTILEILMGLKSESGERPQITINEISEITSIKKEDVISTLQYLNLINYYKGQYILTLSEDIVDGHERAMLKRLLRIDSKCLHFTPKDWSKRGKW
KAT6A Full length enzyme, sequence (Q92794 other isoform, or with tags, fused parts or gaps): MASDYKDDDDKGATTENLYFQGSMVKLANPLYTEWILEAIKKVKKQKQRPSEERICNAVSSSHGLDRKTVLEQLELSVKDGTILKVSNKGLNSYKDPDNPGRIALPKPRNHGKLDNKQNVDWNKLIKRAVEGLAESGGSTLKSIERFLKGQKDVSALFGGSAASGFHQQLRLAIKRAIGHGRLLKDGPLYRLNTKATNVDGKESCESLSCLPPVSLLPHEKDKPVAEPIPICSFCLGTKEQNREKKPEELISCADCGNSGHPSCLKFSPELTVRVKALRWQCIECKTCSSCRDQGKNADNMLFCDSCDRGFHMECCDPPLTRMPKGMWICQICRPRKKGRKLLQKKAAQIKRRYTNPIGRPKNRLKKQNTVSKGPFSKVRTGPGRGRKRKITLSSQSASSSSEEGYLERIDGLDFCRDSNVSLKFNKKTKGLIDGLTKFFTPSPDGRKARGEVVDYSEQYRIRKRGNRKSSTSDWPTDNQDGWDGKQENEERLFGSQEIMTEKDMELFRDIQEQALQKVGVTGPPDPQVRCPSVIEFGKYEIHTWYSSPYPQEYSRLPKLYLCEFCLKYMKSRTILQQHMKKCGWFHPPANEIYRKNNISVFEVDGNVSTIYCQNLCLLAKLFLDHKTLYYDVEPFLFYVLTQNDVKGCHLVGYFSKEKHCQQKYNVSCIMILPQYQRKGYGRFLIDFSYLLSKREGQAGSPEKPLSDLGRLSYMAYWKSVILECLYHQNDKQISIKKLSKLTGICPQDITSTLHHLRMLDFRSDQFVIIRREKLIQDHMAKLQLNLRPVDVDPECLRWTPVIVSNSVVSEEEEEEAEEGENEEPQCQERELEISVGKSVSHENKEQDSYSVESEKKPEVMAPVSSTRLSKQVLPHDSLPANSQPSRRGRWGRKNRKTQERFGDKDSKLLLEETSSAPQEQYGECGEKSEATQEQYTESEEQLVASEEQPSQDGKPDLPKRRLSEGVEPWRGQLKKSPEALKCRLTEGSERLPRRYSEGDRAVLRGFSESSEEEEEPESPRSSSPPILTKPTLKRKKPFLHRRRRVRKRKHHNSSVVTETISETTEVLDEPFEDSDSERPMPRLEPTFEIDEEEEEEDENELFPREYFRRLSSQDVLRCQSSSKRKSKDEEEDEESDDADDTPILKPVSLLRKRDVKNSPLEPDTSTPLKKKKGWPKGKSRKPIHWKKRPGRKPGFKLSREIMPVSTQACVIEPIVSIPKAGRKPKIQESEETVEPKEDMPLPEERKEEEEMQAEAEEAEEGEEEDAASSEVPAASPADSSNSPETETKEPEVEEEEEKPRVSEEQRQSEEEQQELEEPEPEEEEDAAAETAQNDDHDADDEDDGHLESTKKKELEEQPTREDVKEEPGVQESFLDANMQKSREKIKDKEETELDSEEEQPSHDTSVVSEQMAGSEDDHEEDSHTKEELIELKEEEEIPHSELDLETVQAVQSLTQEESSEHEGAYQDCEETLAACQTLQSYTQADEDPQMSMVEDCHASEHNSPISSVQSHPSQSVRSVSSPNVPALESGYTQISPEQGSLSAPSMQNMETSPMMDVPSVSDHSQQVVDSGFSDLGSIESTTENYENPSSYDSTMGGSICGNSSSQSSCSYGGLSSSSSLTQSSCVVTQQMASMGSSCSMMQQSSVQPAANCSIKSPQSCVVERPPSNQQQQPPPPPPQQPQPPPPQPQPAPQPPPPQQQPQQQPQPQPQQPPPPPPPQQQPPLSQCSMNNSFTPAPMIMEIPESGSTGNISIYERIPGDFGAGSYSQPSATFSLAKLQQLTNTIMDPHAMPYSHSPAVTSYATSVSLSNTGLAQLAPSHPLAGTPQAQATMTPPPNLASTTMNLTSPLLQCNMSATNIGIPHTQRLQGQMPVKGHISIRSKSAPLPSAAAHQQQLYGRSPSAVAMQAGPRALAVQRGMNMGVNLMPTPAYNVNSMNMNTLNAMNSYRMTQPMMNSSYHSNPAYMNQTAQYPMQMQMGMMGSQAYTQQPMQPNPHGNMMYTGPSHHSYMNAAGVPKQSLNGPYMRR

| SMILES | Ki [1, 3] [nM] | Ki [2, 4] [nM] | Ki (KAT6A Full length enzyme; [5]) [nM] | Ki (KAT5 Full length enzyme; [6]) [nM] | Ki (KAT8 Full length enzyme; [7]) [nM] | Ki [1, 8] [nM] | Ki [2, 9] [nM] | Ki (KAT6A Full length enzyme; [10]) [nM] | Ki (KAT5 Full length enzyme; read-out: KAT5 Ki (nM) (replicate)) | Ki (KAT8 Full length enzyme; read-out: KAT8 Ki (nM) (replicate)) |
| --- | --- | --- | --- | --- | --- | --- | --- | --- | --- | --- |
| COc1cc2c(NS(=O)(=O)c3c(OC)cc(C4COCC(C)(C)O4)cc3OC)noc2cc1Nc1cc(C2CC2)n[nH]1 (single isomer, unassigned) [Example 183, N-{6-[(3-cyclopropyl-1 H-pyrazol-5-yl)amino]-5-methoxy-1,2-benzoxazol-3-yl}-4-(6,6-dimethyl-1,4-dioxan-2-yl)-2,6-dimethoxybenzene-1-sulfonamide] | 2.1 | 5.7 | 2.1 | – | – | – | – | – | – | – |
| COc1cc2c(NS(=O)(=O)c3c(OC)cc(C(C)N4CCOCC4)cc3OC)noc2cc1Nc1cc(C2CC2)n[nH]1 (single isomer, unassigned) [Example 207, N-{6-[(3-cyclopropyl-1 H-pyrazol-5-yl)amino]-5-methoxy-1,2-benzoxazol-3-yl}-2,6-dimethoxy-4-[1-(morpholin-4-yl)ethyl]benzene-1-sulfonamide] | 4 | 11.5 | 2.3 | – | – | – | – | – | – | – |
| CCc1cc(Nc2cc3onc(NS(=O)(=O)c4ccc(-c5ccccc5)cc4)c3cc2OC)n[nH]1 [Example 130, N-{6-[(5-ethyl-1 H-pyrazol-3-yl)amino]-5-methoxy-1,2-benzoxazol-3-yl}[1,1′-biphenyl]-4-sulfonamide] | – | 85.2 | 13 | 2010 | 7520 | – | – | – | – | – |
| CCc1cc(Nc2cc3onc(NS(=O)(=O)c4ccc(Oc5ccccc5)cc4)c3cc2OC)n[nH]1 [Example 132, N-{6-[(5-ethyl-1 H-pyrazol-3-yl)amino]-5-methoxy-1,2-benzoxazol-3-yl}-4-phenoxybenzene-1-sulfonamide] | – | 410 | 82.7 | 5520 | > 13000 | – | – | – | – | – |
| CCc1cc(Nc2cc3onc(NS(=O)(=O)c4ccc(OC)c(F)c4)c3cc2OC)n[nH]1 [Example 133, N-{6-[(5-ethyl-1 H-pyrazol-3-yl)amino]-5-methoxy-1,2-benzoxazol-3-yl}-3-fluoro-4-methoxybenzene-1-sulfonamide] | – | 321 | 78.7 | 6210 | > 13000 | – | – | – | – | – |
| CCc1cc(Nc2cc3onc(NS(=O)(=O)c4cc(Cl)ccc4Cl)c3cc2OC)n[nH]1 [Example 134, 2,5-dichloro-N-{6-[(5-ethyl-1 H-pyrazol-3-yl)amino]-5-methoxy-1,2-benzoxazol-3-yl}benzene-1-sulfonamide] | – | 185 | 34.3 | 4550 | 9800 | – | – | – | – | – |
| CCc1cc(Nc2cc3onc(NS(=O)(=O)c4cc(F)ccc4Br)c3cc2OC)n[nH]1 [Example 135, 2-bromo-N-{6-[(5-ethyl-1H-pyrazol-3-yl)amino]-5-methoxy-1,2-benzoxazol-3-yl}-5-fluorobenzene-1-sulfonamide] | – | 156 | 52.6 | 3080 | > 13000 | – | – | – | – | – |
| CCc1ccc(S(=O)(=O)Nc2noc3cc(Nc4cc(CC)[nH]n4)c(OC)cc23)cc1 [Example 136, 4-ethyl-N-{6-[(5-ethyl-1 H-pyrazol-3-yl)amino]-5-methoxy-1,2-benzoxazol-3-yl}benzene-1-sulfonamide] | – | 92.7 | 16.3 | 2940 | > 13000 | – | – | – | – | – |
| CCc1cc(Nc2cc3onc(NS(=O)(=O)c4cccc(-c5ccc(OC)cc5)c4)c3cc2OC)[nH]n1 [Example 137, N-{6-[(3-ethyl-1 H-pyrazol-5-yl)amino]-5-methoxy-1,2-benzoxazol-3-yl}-4′-methoxy[1,1′-biphenyl]-3-sulfonamide] | – | 9.7 | 12.9 | 1650 | > 13000 | – | – | – | – | – |
| COc1cc2c(NS(=O)(=O)c3c(OC)cc([C@@H]4CCCO4)cc3OC)noc2cc1Nc1cc(C2CC2)n[nH]1 [Example 140, N-{6-[(3-cyclopropyl-1H-pyrazol-5-yl)amino]-5-methoxy-1,2-benzoxazol-3-yl}-2,6-dimethoxy-4-[(2S)-oxolan-2-yl]benzene-1-sulfonamide] | – | 11.4 | 1.5 | 156 | 911 | – | – | – | – | – |
| COc1cc2c(NS(=O)(=O)c3c(OC)cc([C@H]4CCCO4)cc3OC)noc2cc1Nc1cc(C2CC2)n[nH]1 [Example 141, N-{6-[(3-cyclopropyl-1 H-pyrazol-5-yl)amino]-5-methoxy-1,2-benzoxazol-3-yl}-2,6-dimethoxy-4-[(2R)-oxolan-2-yl]benzene-1-sulfonamide] | – | 6.9 | 1 | 134 | 762 | – | – | – | – | – |
| COc1cc2c(NS(=O)(=O)c3c(OC)cc(CN4CC(F)C4)cc3OC)noc2cc1Nc1cc(C2CC2)n[nH]1 [Example 202, N-{6-[(3-cyclopropyl-1H-pyrazol-5-yl)amino]-5-methoxy-1,2-benzoxazol-3-yl}-4-[(3-fluoroazetidin-1-yl)methyl]-2,6-dimethoxybenzene-1-sulfonamide] | – | 5.2 | 0.7 | 25.4 | 844 | – | – | – | – | – |
| COc1cc2c(NS(=O)(=O)c3c(OC)cc(-c4ncccn4)cc3OC)noc2cc1Nc1cc(C2CC2)n[nH]1 [Example 211, N-{6-[(3-cyclopropyl-1 H-pyrazol-5-yl)amino]-5-methoxy-1,2-benzoxazol-3-yl}-2,6-dimethoxy-4-(pyrimidin-2-yl)benzene-1-sulfonamide] | – | 3.7 | 1.1 | 89.4 | 1350 | – | – | – | – | – |
| COc1cc2c(NS(=O)(=O)c3c(OC)cc(-c4cnn(C)n4)cc3OC)noc2cc1Nc1cc(C2CC2)n[nH]1 [Example 212, N-{6-[(3-cyclopropyl-1 H-pyrazol-5-yl)amino]-5-methoxy-1,2-benzoxazol-3-yl}-2,6-dimethoxy-4-(2-methyl-2H-1,2,3-triazol-4-yl)benzene-1-sulfonamide] | – | 11.1 | 0.7 | 159 | 1410 | – | – | – | – | – |
| COc1cc2c(NS(=O)(=O)c3c(OC)cc(-c4ncc(CN(C)C)cn4)cc3OC)noc2cc1Nc1cc(C2CC2)n[nH]1 [Example 223, N-{6-[(3-cyclopropyl-1H-pyrazol-5-yl)amino]-5-methoxy-1,2-benzoxazol-3-yl}-4-{5-[(dimethylamino)methyl]pyrimidin-2-yl}-2,6-dimethoxybenzene-1-sulfonamide] | – | 4 | 0.4 | 25.4 | 679 | – | – | – | – | – |
| COc1cc2c(NS(=O)(=O)c3c(OC)cc(-c4nccc(C(C)N(C)C)n4)cc3OC)noc2cc1Nc1cc(C2CC2)n[nH]1 (centres unmarked) [Example 227, N-{6-[(3-cyclopropyl-1 H-pyrazol-5-yl)amino]-5-methoxy-1,2-benzoxazol-3-yl}-4-{4-[1-(dimethylamino)ethyl]pyrimidin-2-yl}-2,6-dimethoxybenzene-1-sulfonamide] | – | 6.9 | 0.4 | 218 | 3490 | – | – | – | – | – |
| CCc1cc(Nc2cc3onc(NS(=O)(=O)c4c(OC)cc(-c5ccn(C)n5)cc4OC)c3cc2OC)[nH]n1 [Example 230, N-{6-[(3-ethyl-1H-pyrazol-5-yl)amino]-5-methoxy-1,2-benzoxazol-3-yl}-2,6-dimethoxy-4-(1-methyl-1 H-pyrazol-3-yl)benzene-1-sulfonamide] | – | 2.3 | 1 | 158 | 1960 | – | – | – | – | – |
| COc1cc2c(NS(=O)(=O)c3c(OC)cc(-n4ncccc4=O)cc3OC)noc2cc1Nc1cc(C2CC2)n[nH]1 [Example 243, N-{6-[(3-cyclopropyl-1 H-pyrazol-5-yl)amino]-5-methoxy-1,2-benzoxazol-3-yl}-2,6-dimethoxy-4-(6-oxopyridazin-1(6H)-yl)benzene-1-sulfonamide] | – | 16.9 | 1.5 | 168 | 872 | – | – | – | – | – |
| COc1cc2c(NS(=O)(=O)c3c(OC)cc(N(C)C4CCOC4)cc3OC)noc2cc1Nc1cc(C2CC2)[nH]n1 (centres unmarked) [Example 247, N-{6-[(3-cyclopropyl-1H-pyrazol-5-yl)amino]-5-methoxy-1,2-benzoxazol-3-yl}-2,6-dimethoxy-4-[methyl(oxolan-3-yl)amino]benzene-1-sulfonamide] | – | – | – | – | – | 1.7 | 2.7 | 0.5 | – | – |
| COc1cc2c(NS(=O)(=O)c3c(OC)cc(N(C)C4COC4)cc3OC)noc2cc1Nc1cc(C2CC2)n[nH]1 [Example 248, N-{6-[(3-cyclopropyl-1H-pyrazol-5-yl)amino]-5-methoxy-1,2-benzoxazol-3-yl}-2,6-dimethoxy-4-[methyl(oxetan-3-yl)amino]benzene-1-sulfonamide] | – | – | – | – | – | 2.6 | 5.8 | 1.2 | – | – |
| COc1cc2c(NS(=O)(=O)c3c(OC)cc(N4CC[C@@H](OC)C4)cc3OC)noc2cc1Nc1cc(C2CC2)n[nH]1 [Example 250, N-{6-[(3-cyclopropyl-1H-pyrazol-5-yl)amino]-5-methoxy-1,2-benzoxazol-3-yl}-2,6-dimethoxy-4-[(3R)-3-methoxypyrrolidin-1-yl]benzene-1-sulfonamide] | – | – | – | – | – | 0.9 | 1.3 | 0.2 | – | – |
| COc1cc2c(NS(=O)(=O)c3c(OC)cc(C(=O)N4CC[C@H](F)C4)cc3OC)noc2cc1Nc1cc(C2CC2)n[nH]1 [Example 259, N-{6-[(3-cyclopropyl-1H-pyrazol-5-yl)amino]-5-methoxy-1,2-benzoxazol-3-yl}-4-[(3S)-3-fluoropyrrolidine-1-carbonyl]-2,6-dimethoxybenzene-1-sulfonamide] | – | – | – | – | – | – | 6.7 | 1.2 | 85.1 | 4990 |

Reference: patent publication US20250122183A1 (Pfizer Inc., priority 2023, published 2025)
